Laboratory results from patent US11286268B1, “EIF4E-inhibiting compounds and methods” (EFFECTOR THERAPEUTICS, INC., priority 2019, dated 2022).
Read-outs that look alike come from different tables or passages of the source.

Target: recombinant eIF4E (Homo sapiens (Human), UniProt P06730)
Assay: Fluorescence polarization competition assay for eIF4E binding potency
Procedure: Compounds were screened for eIF4E binding potency using a fluorescence polarization competition assay. All binding reactions were performed in fluorescence polarization buffer (FPB) containing 20 mM Tris pH 7.5, 100 mM NaCl, 1 mM DTT, and 0.02% Tween-20. Final binding reactions contained 75 nM recombinant eIF4E (Beryllium, custom order), 20 nM EDA-m^7GDP-ATTO-550 (Jena Bioscience, NU-827-550) and varying concentrations of the inhibitory compound of interest. Final DMSO concentration in each reaction was 1%.
eIF4E protein was pre-incubated with EDA-m^7GDP-ATTO-550 in FPB at 2× concentrations for 5 minutes prior to the addition of compounds. Compounds (100×) were prepared using 3-fold serial dilutions in 100% DMSO, and subsequently diluted 1:50 in FPB to produce 2× stocks. 50 μl of 2× eIF4E/EDA-m^7GDP-ATTO-550 were transferred to the wells of a 96-well half-area black flat bottom polystyrene plate. 50 μl of 2× test compound were added, and binding reactions were allowed to equilibrate for 30 minutes at room temperature while protected from light. The fluorescent polarization signal was detected using a Victor 2 multi-label counter (Perkin Elmer) and the concentration necessary to achieve inhibition of eIF4E/EDA-m^7GDP-ATTO-550 binding by 50% (IC50) was calculated using data from an 8-point compound dilution series.
In Table 4A, IC50 values of less than 0.05 μM are labelled as “+++”, from 1 to 0.05 μM are labelled as “++”, and greater than 1 μM are labelled as “+”. ND=not determined.

[1] = fluorescence polarization competition, 75 nM recombinant eIF4E, 20 nM EDA-m7GDP-ATTO-550, IC50 class, read-out: elF4E FP
[2] = inhibition of eIF4E/EDA-m7GDP-ATTO-550 binding by 50%, Table 4B calculated values, read-out: IC50

Chain of recombinant eIF4E (P06730 whole entry): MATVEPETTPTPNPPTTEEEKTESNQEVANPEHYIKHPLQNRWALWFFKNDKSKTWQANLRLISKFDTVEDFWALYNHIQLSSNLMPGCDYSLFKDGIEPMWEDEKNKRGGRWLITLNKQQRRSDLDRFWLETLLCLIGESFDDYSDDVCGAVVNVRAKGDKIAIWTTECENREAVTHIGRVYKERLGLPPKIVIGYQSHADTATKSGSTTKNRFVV

Row | IC50 [1] [nM] | IC50 [2] [nM] | SMILES
1 | 50 to 1000 | 116 | Cc1nc2cnc(C#N)cc2c(=O)n1CCOc1ccc(Cl)cc1-c1ccnc(C(=O)O)c1 [compound 134]
2 | 50 to 1000 | 199 | O=C(O)c1cccc(-c2cc(Cl)ccc2OCCn2cnc3cnc(-n4cccn4)cc3c2=O)c1 [compound 136]
3 | 50 to 1000 | 904 | CNC(=O)Cc1cc2c(=O)n(CCOc3ccc(Cl)cc3-c3cccc(C(=O)O)c3)cnc2cn1 [compound 137]
4 | 50 to 1000 | 279 | Cc1cc2c(=O)n(CCOc3ccc(Cl)cc3-c3cccc(C(=O)O)c3)cnc2cn1 [compound 138]
5 | < 50 | 34.6 | N#Cc1cc(C(F)F)cc2ncn(CCOc3ccc(Cl)cc3-c3cccc(C(=O)O)c3)c(=O)c12 [compound 139]
6 | 50 to 1000 | 50 | Cc1nc2cncc(C#N)c2c(=O)n1CCOc1ccc(Cl)cc1-c1ccnc2c(C(=O)O)csc12 [compound 140]
7 | < 50 | 44.2 | Cc1nc2ccc(Cl)c(C#N)c2c(=O)n1CCOc1ccc(Cl)cc1-c1cccc(C(=O)O)c1 [compound 141]
8 | 50 to 1000 | 152 | Cc1nc2c(C(F)(F)F)ccc(C#N)c2c(=O)n1CCOc1ccc(Cl)cc1-c1cccc(C(=O)O)c1 [compound 142]
9 | < 50 | 16.7 | N#Cc1cccc2nc(C(F)F)n(CCOc3ccc(Cl)cc3-c3ccnc4c(C(=O)O)csc34)c(=O)c12 [compound 143]
10 | 50 to 1000 | 95.9 | Cc1nc2cc(C(F)(F)F)cc(C#N)c2c(=O)n1C/C=C/c1ccc(Cl)cc1-c1cccc(C(=O)O)c1 [compound 145]
11 | 50 to 1000 | 259 | Cc1nc2cc(C(F)(F)F)cc(C#N)c2c(=O)n1CCCc1ccc(Cl)cc1-c1cccc(C(=O)O)c1 [compound 146]
12 | < 50 | 14.7 | Cc1nc2cncc(C#N)c2c(=O)n1CCOc1ccc(Cl)cc1-c1ccc(C(=O)O)c(C(=O)O)c1 [compound 147]
13 | < 50 | 20.5 | N#Cc1cccc2nc(C(F)F)n(CCOc3ccc(Cl)cc3-c3ccc(C(=O)O)c(C(=O)O)c3)c(=O)c12 [compound 148]
14 | 50 to 1000 | 110 | Cc1nc2cncc(C#N)c2c(=O)n1CC#Cc1ccc(Cl)cc1-c1ccc(C(=O)O)c(C(=O)O)c1 [compound 149]
15 | 50 to 1000 | 54 | Cc1nc2cc(C(F)F)cc(C#N)c2c(=O)n1CCOc1ccc(Cl)cc1-c1cccc(C(=O)O)c1 [compound 153]
16 | 50 to 1000 |  | Cc1nc2cc(C(F)(F)F)nc(C#N)c2c(=O)n1CCOc1ccc(Cl)cc1-c1cccc(C(=O)O)c1 [compound 154]
17 | < 50 | 45.5 | C#Cc1c(C(=O)O)cccc1-c1cc(Cl)ccc1OCCn1c(C)nc2cncc(C#N)c2c1=O [compound 155]
18 | < 50 | 4.2 | C#Cc1c(C(=O)O)cccc1-c1cc(Cl)ccc1OCCn1c(C)nc2cc(C(F)(F)F)cc(C#N)c2c1=O [compound 156]
19 | < 50 | 48.3 | Cc1nc2cc(C(F)(F)F)cc(C#N)c2c(=O)n1CCOc1ccc(Cl)cc1-c1ccc(C(=O)O)c(C(=O)O)c1 [compound 158]
20 | < 50 | 30.9 | C#Cc1c(C(=O)O)cccc1-c1cc(Cl)ccc1OCCn1cnc2cc(C(F)(F)F)cc(C#N)c2c1=O [compound 159]
21 | < 50 | 8.83 | Cc1nc2ccc(C(F)F)c(C#N)c2c(=O)n1CCOc1ccc(Cl)cc1-c1ccnc2c(C(=O)O)csc12 [compound 160]
22 | 50 to 1000 |  | N#Cc1c(C(F)F)ccc2ncn(CCOc3ccc(Cl)cc3-c3ccnc(C(=O)O)c3)c(=O)c12 [compound 161]

Row | IC50 [1] [nM] | IC50 [2] [nM] | SMILES
23 | < 50 | 28.7 | N#Cc1cc(C(F)(F)F)cc2ncn(CCOc3ccc(Cl)cc3-c3ccnc(C(=O)O)c3)c(=O)c12 [compound 162]
24 | 50 to 1000 | 95.5 | C#Cc1c(-c2cc(Cl)ccc2OCCn2c(C(F)F)nc3cccc(C#N)c3c2=O)ccnc1C(=O)O [compound 163]
25 |  | 16.4 | N#Cc1cc(C(F)(F)F)cc2ncn(CCOc3ccc(Cl)cc3-c3ccnc4c(C(=O)O)csc34)c(=O)c12 [compound 164]
26 | 50 to 1000 | 106 | C#Cc1c(C(=O)O)cccc1-c1cc(Cl)ccc1OCCn1c(C(F)F)nc2cccc(C#N)c2c1=O [compound 165]
27 | < 50 | 35 | N#Cc1cccc2nc(C(F)F)n(CCOc3ccc(Cl)cc3-c3ccnc(C(=O)O)c3)c(=O)c12 [compound 166]
28 | 50 to 1000 | 101 | Cc1nc2cc(F)cc(C#N)c2c(=O)n1CCOc1ccc(Cl)cc1-c1cccc(C(=O)O)c1 [compound 167]
29 | < 50 | 37.2 | Cc1nc2cc(C(F)(F)F)cc(C#N)c2c(=O)n1CCOc1ccc(Cl)cc1-c1cccc(C(=O)O)c1C#N [compound 168]
30 | 50 to 1000 | 234 | C=Cc1c(C(=O)O)cccc1-c1cc(Cl)ccc1OCCn1c(C)nc2cc(C(F)(F)F)cc(C#N)c2c1=O [compound 169]
31 | 50 to 1000 | 845 | O=C(O)c1cccc(-c2cc(Cl)ccc2OCCc2cccc3nc[nH]c(=O)c23)c1 [compound 170]
32 | 50 to 1000 | 194 | CNc1nc2c(F)ccc(CCOc3ccc(Cl)cc3-c3cccc(C(=O)O)c3)c2c(=O)[nH]1 [compound 171]
33 | 50 to 1000 | 92.3 | CNc1nc2c(F)c(F)cc(CCOc3ccc(Cl)cc3-c3cccc(C(=O)O)c3)c2c(=O)[nH]1 [compound 172]
34 | 50 to 1000 | 141 | O=C(O)c1cccc(-c2cc(Cl)ccc2OCCc2cnc(C(F)F)c3nc(Nc4ccccc4)[nH]c(=O)c23)c1 [compound 173]
35 | 50 to 1000 | 52.1 | N#Cc1c(F)cc(CCOc2ccc(Cl)cc2-c2cccc(C(=O)O)c2)c2c(=O)[nH]c(Nc3ccccc3)nc12 [compound 174]
36 | < 50 | 20.4 | N#Cc1cn(CCOc2ccc(Cl)cc2-c2ccnc3c(C(=O)O)csc23)c2c(=O)[nH]c(Nc3ccccc3)nc12 [compound 175]
37 | < 50 | 41.5 | O=C(O)c1cccc(-c2cc(Cl)ccc2OCCc2ccnc3nc(Nc4ccccc4)[nH]c(=O)c23)c1 [compound 176]
38 | < 50 | 26.8 | N#Cc1ncc(CCOc2ccc(Cl)cc2-c2cccc(C(=O)O)c2)c2c(=O)[nH]c(NCC(F)(F)F)nc12 [compound 177]
39 | 50 to 1000 | 140 | O=C(O)c1cccc(-c2cc(Cl)ccc2OCCc2cc(C(F)(F)F)nc3nc(Nc4ccccc4)[nH]c(=O)c23)c1 [compound 178]
40 | < 50 | 20.6 | N#Cc1ncc(CCOc2ccc(Cl)cc2-c2cccc(C(=O)O)c2)c2c(=O)[nH]c(Nc3ccccc3)nc12 [compound 179]
41 | < 50 | 47.7 | Cc1c(CCOc2ccc(Cl)cc2-c2ccnc3c(C(=O)O)csc23)c(=O)c2c(C#N)cc(C(F)(F)F)cc2n1C [compound 180]
42 | 50 to 1000 | 62.3 | N#Cc1cc(C(F)(F)F)cc2nc(CF)n(CCOc3ccc(Cl)cc3-c3ccnc4c(C(=O)O)csc34)c(=O)c12 [compound 181]
43 | < 50 | 43.8 | N#Cc1cc(C(F)(F)F)cc2nc(CF)n(CCOc3ccc(Cl)cc3-c3cccc(C(=O)O)c3)c(=O)c12 [compound 182]
